# Reference: the kinase profiling compilation of Christmann-Franck et al. (2016)
# How the values were obtained:
# Assay in all cases: KINOMEscan competition binding
# Details in all cases: compound 10.0 µM
# RIPK2 (human) = RIPK2 (human) (UniProt O43353)
# CAMKK2 (human) = CAMKK2 (human) (UniProt Q96RR4)
# TEK (human) = TEK (human) (UniProt Q02763)
# TNK1 (human) = TNK1 (human) (UniProt Q13470)
# MAP3K7 (human) = MAP3K7 (human) (UniProt O43318)
# CLK2 (human) = CLK2 (human) (UniProt P49760)
# ULK2 (human) = ULK2 (human) (UniProt Q8IYT8)
# GSK3A (human) = GSK3A (human) (UniProt P49840)
# GSK3A (human), sequence (P49840 whole entry, looked up): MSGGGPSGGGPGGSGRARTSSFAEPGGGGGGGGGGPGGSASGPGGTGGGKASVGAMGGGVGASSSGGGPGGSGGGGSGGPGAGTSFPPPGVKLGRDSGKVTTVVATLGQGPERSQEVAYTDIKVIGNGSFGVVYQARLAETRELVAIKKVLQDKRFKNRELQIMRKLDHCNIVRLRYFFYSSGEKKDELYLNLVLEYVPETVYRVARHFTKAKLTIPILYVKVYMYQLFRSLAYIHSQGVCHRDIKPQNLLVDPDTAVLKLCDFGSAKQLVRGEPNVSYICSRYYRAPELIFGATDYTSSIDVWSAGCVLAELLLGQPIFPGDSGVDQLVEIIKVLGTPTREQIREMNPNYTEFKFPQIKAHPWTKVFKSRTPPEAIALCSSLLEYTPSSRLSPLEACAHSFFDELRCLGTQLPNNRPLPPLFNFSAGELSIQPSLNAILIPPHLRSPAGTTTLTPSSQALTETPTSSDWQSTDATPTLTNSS
# ACVR2B (human) = ACVR2B (human) (UniProt Q13705)
# ACVR2B (human), sequence (Q13705 whole entry, looked up): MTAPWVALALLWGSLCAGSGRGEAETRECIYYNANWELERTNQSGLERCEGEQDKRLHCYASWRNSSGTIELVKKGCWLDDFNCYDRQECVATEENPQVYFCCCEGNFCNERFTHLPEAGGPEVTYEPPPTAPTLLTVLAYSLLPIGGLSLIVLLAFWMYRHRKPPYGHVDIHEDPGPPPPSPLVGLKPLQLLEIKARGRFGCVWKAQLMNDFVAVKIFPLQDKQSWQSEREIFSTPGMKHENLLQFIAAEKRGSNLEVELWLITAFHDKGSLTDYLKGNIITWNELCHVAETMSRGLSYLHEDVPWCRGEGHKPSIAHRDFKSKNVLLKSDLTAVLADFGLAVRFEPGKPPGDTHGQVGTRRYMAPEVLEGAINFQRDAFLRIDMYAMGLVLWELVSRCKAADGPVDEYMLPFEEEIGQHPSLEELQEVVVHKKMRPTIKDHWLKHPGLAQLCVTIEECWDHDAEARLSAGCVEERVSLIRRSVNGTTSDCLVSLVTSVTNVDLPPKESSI
# EPHA1 (human) = EPHA1 (human) (UniProt P21709)
# [1] = system: FLT3 (human), P36888 [D835Y]
# DDR1 (human) = DDR1 (human) (UniProt Q08345)
# RPS6KA6 KD2 (human) = RPS6KA6 KD2 (human) (UniProt Q9UK32)
# CSNK1D (human) = CSNK1D (human) (UniProt P48730)
# CAMK2A (human) = CAMK2A (human) (UniProt Q9UQM7)
# STK32B (human) = STK32B (human) (UniProt Q9NY57)
# AAK1 (human) = AAK1 (human) (UniProt Q2M2I8)
# PKN1 (human) = PKN1 (human) (UniProt Q16512)
# MARK2 (human) = MARK2 (human) (UniProt Q7KZI7)
# STK3 (human) = STK3 (human) (UniProt Q13188)
# CDK17 (human) = CDK17 (human) (UniProt Q00537)
# RAF1 (human) = RAF1 (human) (UniProt P04049)
# RAF1 (human), sequence (P04049 whole entry, looked up): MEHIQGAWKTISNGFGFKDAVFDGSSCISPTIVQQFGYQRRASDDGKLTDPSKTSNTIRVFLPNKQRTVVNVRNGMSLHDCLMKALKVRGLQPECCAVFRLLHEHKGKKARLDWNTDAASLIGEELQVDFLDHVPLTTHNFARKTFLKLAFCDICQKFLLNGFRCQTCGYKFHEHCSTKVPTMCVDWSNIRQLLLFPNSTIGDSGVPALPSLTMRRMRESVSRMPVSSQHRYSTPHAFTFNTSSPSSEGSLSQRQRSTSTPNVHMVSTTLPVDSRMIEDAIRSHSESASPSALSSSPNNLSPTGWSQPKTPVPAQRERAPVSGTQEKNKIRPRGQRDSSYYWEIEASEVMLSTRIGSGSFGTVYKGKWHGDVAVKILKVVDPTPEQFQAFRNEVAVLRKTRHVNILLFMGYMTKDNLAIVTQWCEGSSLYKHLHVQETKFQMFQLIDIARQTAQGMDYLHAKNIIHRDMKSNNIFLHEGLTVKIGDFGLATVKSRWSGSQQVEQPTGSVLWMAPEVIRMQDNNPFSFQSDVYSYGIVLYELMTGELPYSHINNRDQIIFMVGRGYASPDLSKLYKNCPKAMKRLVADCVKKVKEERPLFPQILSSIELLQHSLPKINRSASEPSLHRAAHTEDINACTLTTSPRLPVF
# [2] = molecular target: TYK2 JH1 catalytic (human) (UniProt P29597)
# AKT1 (human) = AKT1 (human) (UniProt P31749)
# MINK1 (human) = MINK1 (human) (UniProt Q8N4C8)
# DYRK1B (human) = DYRK1B (human) (UniProt Q9Y463)
# PIK3CA (human) = PIK3CA (human) (UniProt P42336)
# PIM3 (human) = PIM3 (human) (UniProt Q86V86)
# STK16 (human) = STK16 (human) (UniProt O75716)
# PDPK1 (human) = PDPK1 (human) (UniProt O15530)
# IGF1R (human) = IGF1R (human) (UniProt P08069)
# BRSK2 (human) = BRSK2 (human) (UniProt Q8IWQ3)
# TLK2 (human) = TLK2 (human) (UniProt Q86UE8)
# [3] = system: ABL1 (human), P00519 [T315I]
# PLK4 (human) = PLK4 (human) (UniProt O00444)
# PLK4 (human), sequence (O00444 whole entry, looked up): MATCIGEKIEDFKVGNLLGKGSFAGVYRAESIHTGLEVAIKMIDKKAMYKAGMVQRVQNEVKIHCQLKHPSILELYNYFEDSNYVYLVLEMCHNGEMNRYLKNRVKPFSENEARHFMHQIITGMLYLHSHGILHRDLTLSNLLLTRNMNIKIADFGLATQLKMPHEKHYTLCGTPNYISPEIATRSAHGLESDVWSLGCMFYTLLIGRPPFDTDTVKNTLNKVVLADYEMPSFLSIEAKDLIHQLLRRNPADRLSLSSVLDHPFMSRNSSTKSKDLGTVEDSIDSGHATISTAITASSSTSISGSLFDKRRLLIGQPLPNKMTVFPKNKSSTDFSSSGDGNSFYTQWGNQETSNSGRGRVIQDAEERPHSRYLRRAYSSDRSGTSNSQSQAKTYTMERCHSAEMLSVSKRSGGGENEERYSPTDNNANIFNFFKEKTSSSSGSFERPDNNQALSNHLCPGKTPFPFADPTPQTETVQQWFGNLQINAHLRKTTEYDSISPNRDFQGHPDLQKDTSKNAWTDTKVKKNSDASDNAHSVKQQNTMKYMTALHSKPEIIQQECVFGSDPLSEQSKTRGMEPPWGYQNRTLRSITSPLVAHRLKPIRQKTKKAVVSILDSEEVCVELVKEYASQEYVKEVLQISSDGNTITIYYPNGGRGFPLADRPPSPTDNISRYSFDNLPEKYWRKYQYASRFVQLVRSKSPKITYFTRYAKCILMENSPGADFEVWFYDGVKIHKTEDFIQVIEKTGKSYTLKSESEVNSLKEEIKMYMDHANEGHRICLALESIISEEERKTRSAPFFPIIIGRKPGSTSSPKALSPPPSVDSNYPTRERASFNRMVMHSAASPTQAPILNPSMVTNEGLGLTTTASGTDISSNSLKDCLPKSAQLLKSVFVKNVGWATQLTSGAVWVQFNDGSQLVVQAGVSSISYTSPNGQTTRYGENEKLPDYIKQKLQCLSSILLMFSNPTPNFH
# EPHA3 (human) = EPHA3 (human) (UniProt P29320)
# AURKC (human) = AURKC (human) (UniProt Q9UQB9)
# PTK2 (human) = PTK2 (human) (UniProt Q05397)
# [4] = system: EGFR (human), P00533 [P753S; 747-752 del]
# CSNK1G1 (human) = CSNK1G1 (human) (UniProt Q9HCP0)
# CSNK1G1 (human), sequence (Q9HCP0 whole entry, looked up): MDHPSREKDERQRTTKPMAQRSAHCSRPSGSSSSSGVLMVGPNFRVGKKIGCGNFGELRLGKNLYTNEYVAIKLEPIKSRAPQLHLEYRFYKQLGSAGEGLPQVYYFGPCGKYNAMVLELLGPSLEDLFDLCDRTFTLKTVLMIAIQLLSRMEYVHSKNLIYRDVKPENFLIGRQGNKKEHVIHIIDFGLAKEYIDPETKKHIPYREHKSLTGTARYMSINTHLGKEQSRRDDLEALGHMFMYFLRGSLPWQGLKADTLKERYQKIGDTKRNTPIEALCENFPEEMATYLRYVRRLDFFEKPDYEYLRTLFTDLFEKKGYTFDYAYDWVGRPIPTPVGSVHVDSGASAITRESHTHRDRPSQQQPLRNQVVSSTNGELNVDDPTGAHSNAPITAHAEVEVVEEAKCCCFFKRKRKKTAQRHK
# LATS1 (human) = LATS1 (human) (UniProt O95835)
# LATS1 (human), sequence (O95835 whole entry, looked up): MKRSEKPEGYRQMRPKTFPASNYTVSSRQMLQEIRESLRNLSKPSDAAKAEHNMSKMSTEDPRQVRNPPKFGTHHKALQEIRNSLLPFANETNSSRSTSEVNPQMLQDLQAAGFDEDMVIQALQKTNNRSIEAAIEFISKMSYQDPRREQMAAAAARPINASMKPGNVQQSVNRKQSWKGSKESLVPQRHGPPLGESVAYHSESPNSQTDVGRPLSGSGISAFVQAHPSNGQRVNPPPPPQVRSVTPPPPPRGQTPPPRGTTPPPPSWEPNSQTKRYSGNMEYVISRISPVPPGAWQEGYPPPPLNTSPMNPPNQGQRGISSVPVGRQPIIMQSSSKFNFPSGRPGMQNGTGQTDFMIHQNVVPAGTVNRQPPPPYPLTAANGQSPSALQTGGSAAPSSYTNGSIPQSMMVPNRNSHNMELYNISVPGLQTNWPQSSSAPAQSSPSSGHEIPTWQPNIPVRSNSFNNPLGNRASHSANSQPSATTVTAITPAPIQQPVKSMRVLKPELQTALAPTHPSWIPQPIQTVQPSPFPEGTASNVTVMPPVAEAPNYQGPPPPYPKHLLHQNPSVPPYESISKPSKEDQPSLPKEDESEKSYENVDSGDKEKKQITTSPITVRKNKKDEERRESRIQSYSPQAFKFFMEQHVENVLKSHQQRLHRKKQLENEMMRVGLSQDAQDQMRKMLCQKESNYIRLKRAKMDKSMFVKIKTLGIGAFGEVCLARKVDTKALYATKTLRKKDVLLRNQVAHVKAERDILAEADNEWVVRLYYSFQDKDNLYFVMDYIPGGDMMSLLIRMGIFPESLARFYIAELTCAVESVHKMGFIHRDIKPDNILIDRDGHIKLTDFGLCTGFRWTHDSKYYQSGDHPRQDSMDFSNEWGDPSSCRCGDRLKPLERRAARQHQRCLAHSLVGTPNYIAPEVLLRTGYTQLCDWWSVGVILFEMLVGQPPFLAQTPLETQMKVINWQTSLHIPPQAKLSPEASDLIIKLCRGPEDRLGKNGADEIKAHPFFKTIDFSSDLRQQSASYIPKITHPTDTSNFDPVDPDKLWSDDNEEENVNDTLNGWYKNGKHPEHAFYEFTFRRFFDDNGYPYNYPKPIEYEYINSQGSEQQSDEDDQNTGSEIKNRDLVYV
# BMPR1A (human) = BMPR1A (human) (UniProt P36894)
# CAMKK2 (human), sequence (Q96RR4 whole entry, looked up): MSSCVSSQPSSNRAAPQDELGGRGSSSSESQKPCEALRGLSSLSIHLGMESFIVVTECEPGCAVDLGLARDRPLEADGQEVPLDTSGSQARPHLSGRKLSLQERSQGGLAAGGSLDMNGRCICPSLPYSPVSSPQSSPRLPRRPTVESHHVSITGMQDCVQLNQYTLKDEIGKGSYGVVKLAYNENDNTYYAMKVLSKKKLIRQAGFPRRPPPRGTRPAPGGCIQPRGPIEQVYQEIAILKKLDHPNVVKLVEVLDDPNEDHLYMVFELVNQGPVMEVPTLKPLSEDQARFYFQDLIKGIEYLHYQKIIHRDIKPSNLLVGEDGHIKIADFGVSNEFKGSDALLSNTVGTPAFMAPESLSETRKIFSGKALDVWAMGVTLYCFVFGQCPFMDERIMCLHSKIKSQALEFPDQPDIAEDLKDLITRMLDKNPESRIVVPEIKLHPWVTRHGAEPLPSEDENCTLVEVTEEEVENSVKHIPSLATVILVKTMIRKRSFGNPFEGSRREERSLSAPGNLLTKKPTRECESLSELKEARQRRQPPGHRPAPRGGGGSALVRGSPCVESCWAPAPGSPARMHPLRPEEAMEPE
smiles,measurement,setting,value
COc1cc(N2CCC(O)CC2)ccc1Nc1ncc2c(n1)N1CCc3cccc(c31)C(=O)N2C,"kinase still bound, per cent of control",RIPK2 (human),100%
same,"kinase still bound, per cent of control",CAMKK2 (human),60%
same,"kinase still bound, per cent of control",TEK (human),98%
same,"kinase still bound, per cent of control",TNK1 (human),5.8%
same,"kinase still bound, per cent of control",MAP3K7 (human),98%
same,"kinase still bound, per cent of control",CLK2 (human),55%
same,"kinase still bound, per cent of control",ULK2 (human),80%
same,"kinase still bound, per cent of control",GSK3A (human),100%
same,"kinase still bound, per cent of control",ACVR2B (human),100%
same,"kinase still bound, per cent of control",EPHA1 (human),100%
same,"kinase still bound, per cent of control",[1],68%
same,"kinase still bound, per cent of control",DDR1 (human),100%
same,"kinase still bound, per cent of control",RPS6KA6 KD2 (human),3.2%
same,"kinase still bound, per cent of control",CSNK1D (human),60%
same,"kinase still bound, per cent of control",CAMK2A (human),80%
same,"kinase still bound, per cent of control",STK32B (human),100%
same,"kinase still bound, per cent of control",AAK1 (human),35%
same,"kinase still bound, per cent of control",PKN1 (human),100%
same,"kinase still bound, per cent of control",MARK2 (human),97%
same,"kinase still bound, per cent of control",STK3 (human),84%
same,"kinase still bound, per cent of control",CDK17 (human),94%
same,"kinase still bound, per cent of control",RAF1 (human),98%
same,"kinase still bound, per cent of control",[2],64%
same,"kinase still bound, per cent of control",AKT1 (human),100%
same,"kinase still bound, per cent of control",MINK1 (human),60%
same,"kinase still bound, per cent of control",DYRK1B (human),54%
same,"kinase still bound, per cent of control",PIK3CA (human),84%
same,"kinase still bound, per cent of control",PIM3 (human),92%
same,"kinase still bound, per cent of control",STK16 (human),48%
same,"kinase still bound, per cent of control",PDPK1 (human),100%
same,"kinase still bound, per cent of control",IGF1R (human),100%
same,"kinase still bound, per cent of control",BRSK2 (human),85%
same,"kinase still bound, per cent of control",TLK2 (human),94%
same,"kinase still bound, per cent of control",[3],100%
same,"kinase still bound, per cent of control",PLK4 (human),5.4%
same,"kinase still bound, per cent of control",EPHA3 (human),72%
same,"kinase still bound, per cent of control",AURKC (human),89%
same,"kinase still bound, per cent of control",PTK2 (human),4.6%
same,"kinase still bound, per cent of control",[4],91%
same,"kinase still bound, per cent of control",CSNK1G1 (human),100%
same,"kinase still bound, per cent of control",LATS1 (human),100%
same,"kinase still bound, per cent of control",BMPR1A (human),100%
COc1cc(N2CCN(C)CC2)ccc1Nc1ncc2c(n1)N(C)c1ccccc1N(C)C2=O,"kinase still bound, per cent of control",RIPK2 (human),100%
same,"kinase still bound, per cent of control",CAMKK2 (human),53%
same,"kinase still bound, per cent of control",TEK (human),100%
same,"kinase still bound, per cent of control",TNK1 (human),4.9%
same,"kinase still bound, per cent of control",MAP3K7 (human),100%
same,"kinase still bound, per cent of control",CLK2 (human),81%
same,"kinase still bound, per cent of control",ULK2 (human),100%
same,"kinase still bound, per cent of control",GSK3A (human),100%
same,"kinase still bound, per cent of control",ACVR2B (human),92%
same,"kinase still bound, per cent of control",EPHA1 (human),100%
same,"kinase still bound, per cent of control",[1],75%
same,"kinase still bound, per cent of control",DDR1 (human),93%
same,"kinase still bound, per cent of control",RPS6KA6 KD2 (human),60%
same,"kinase still bound, per cent of control",CSNK1D (human),76%
same,"kinase still bound, per cent of control",CAMK2A (human),75%
same,"kinase still bound, per cent of control",STK32B (human),100%
same,"kinase still bound, per cent of control",AAK1 (human),88%
same,"kinase still bound, per cent of control",PKN1 (human),80%
same,"kinase still bound, per cent of control",MARK2 (human),100%
same,"kinase still bound, per cent of control",STK3 (human),98%
same,"kinase still bound, per cent of control",CDK17 (human),100%
same,"kinase still bound, per cent of control",RAF1 (human),94%
same,"kinase still bound, per cent of control",[2],94%
same,"kinase still bound, per cent of control",AKT1 (human),91%
same,"kinase still bound, per cent of control",MINK1 (human),100%
same,"kinase still bound, per cent of control",DYRK1B (human),92%
same,"kinase still bound, per cent of control",PIK3CA (human),100%
same,"kinase still bound, per cent of control",PIM3 (human),84%
same,"kinase still bound, per cent of control",STK16 (human),100%
same,"kinase still bound, per cent of control",PDPK1 (human),79%
same,"kinase still bound, per cent of control",IGF1R (human),100%
same,"kinase still bound, per cent of control",BRSK2 (human),85%
same,"kinase still bound, per cent of control",TLK2 (human),96%
same,"kinase still bound, per cent of control",[3],100%
same,"kinase still bound, per cent of control",PLK4 (human),67%
same,"kinase still bound, per cent of control",EPHA3 (human),81%
same,"kinase still bound, per cent of control",AURKC (human),86%
same,"kinase still bound, per cent of control",PTK2 (human),85%
same,"kinase still bound, per cent of control",[4],100%
same,"kinase still bound, per cent of control",CSNK1G1 (human),100%
same,"kinase still bound, per cent of control",LATS1 (human),94%
same,"kinase still bound, per cent of control",BMPR1A (human),100%
